Experiments:
[1] = test system: ECHCG; assay: Pre-emergence action against ECHCG, 1280 g/ha; format: in vivo, Echinochloa crus-galli; conditions: visual scoring after about 3 weeks vs untreated controls, 100% = plants have died, 0% = like control plants
Summary of the method: (§1)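 Soil-surface application after sowing, before emergence: WP or EC formulations in water with 0.5% additive, 600 litres per hectare, onto sandy loam pots. Damage rated visually in % relative to untreated plants after roughly 3 weeks in a greenhouse.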

[2] = test system: POAAN; assay: Pre-emergence action against POAAN, 1280 g/ha; format: in vivo, Poa annua; conditions: visual scoring after about 3 weeks vs untreated controls, 100% = plants have died, 0% = like control plants
Summary of the method: as §1

[3] = test system: SETVI; assay: Pre-emergence action against SETVI, 1280 g/ha; format: in vivo, Setaria viridis; conditions: visual scoring after about 3 weeks vs untreated controls, 100% = plants have died, 0% = like control plants
Summary of the method: as §1

[4] = test system: AMARE; assay: Pre-emergence action against AMARE, 1280 g/ha; format: in vivo, Amaranthus retroflexus; conditions: scored visually after about 3 weeks vs untreated controls (100% = plants have died)
Summary of the method: as §1

[5] = test system: MATIN; assay: Pre-emergence action against MATIN, 1280 g/ha; format: in vivo, Tripleurospermum inodorum (Matricaria inodora); conditions: scored visually after about 3 weeks vs untreated controls (100% = plants have died)
Summary of the method: as §1

[6] = test system: STEME; assay: Pre-emergence action against STEME, 1280 g/ha; format: in vivo, Stellaria media; conditions: scored visually after about 3 weeks vs untreated controls (100% = plants have died)
Summary of the method: as §1

[7] = test system: ALOMY; assay: Pre-emergence action at 320 g/ha against ALOMY; format: in vivo, Alopecurus myosuroides; conditions: scored visually after about 3 weeks vs untreated controls (100% = plants have died)
Summary of the method: (§2)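 Visual % scoring at about 3 weeks post-treatment against untreated pots (0% = like control, 100% = dead), greenhouse-grown. Compounds applied at 320 g/ha as aqueous WP/EC suspension or emulsion plus 0.5% additive, 600 l/ha water, onto covering soil of freshly sown pots before emergence.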

[8] = test system: AVEFA; assay: Pre-emergence action at 320 g/ha against AVEFA; format: in vivo; conditions: visual scoring after about 3 weeks vs untreated controls
Summary of the method: as §2

[9] = test system: DIGSA; assay: Pre-emergence action at 320 g/ha against DIGSA; format: in vivo, Digitaria sanguinalis; conditions: visual scoring after about 3 weeks vs untreated controls
Summary of the method: as §2

[10] = test system: SETVI; assay: Pre-emergence action at 320 g/ha against SETVI; format: in vivo, Setaria viridis; conditions: visual scoring after about 3 weeks vs untreated controls
Summary of the method: as §2

[11] = test system: AMARE; assay: Pre-emergence action at 320 g/ha against AMARE; format: in vivo, Amaranthus retroflexus; conditions: visual scoring after about 3 weeks vs untreated controls
Summary of the method: as §2

[12] = test system: MATIN; assay: Pre-emergence action at 320 g/ha against MATIN; format: in vivo, Tripleurospermum inodorum (Matricaria inodora); conditions: visual scoring after about 3 weeks vs untreated controls
Summary of the method: as §2

[13] = test system: POLCO; assay: Pre-emergence action at 320 g/ha against POLCO; format: in vivo, Fallopia convolvulus (Polygonum convolvulus); conditions: visual scoring after about 3 weeks vs untreated controls
Summary of the method: as §2

[14] = test system: POAAN; assay: Post-emergence action against POAAN, 1.28 kg/ha; format: in vivo, Poa annua; conditions: dosage 1280 g/ha, visual rating about 3 weeks after treatment vs untreated controls
Summary of the method: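 Herbicidal action is estimated by eye after about three weeks under optimum greenhouse conditions, on a 0–100% scale against untreated plants. Compounds are applied post-emergence to one-leaf-stage weeds as aqueous WP or EC preparations containing 0.5% additive, sprayed at 600 L/ha.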

[15] = Tripleurospermum inodorum, 504 h

Row | SMILES | Pre-emergence action against ECHCG [1] | Pre-emergence action against POAAN [2] | Pre-emergence action against SETVI [3] | Pre-emergence action against AMARE [4] | Pre-emergence action against MATIN [5] | Pre-emergence action against STEME [6] | Pre-emergence action at 320 g/ha against ALOMY in % [7] | Pre-emergence action against AVEFA in % [8] | Pre-emergence action against DIGSA in % [9] | Pre-emergence action against SETVI in % [10] | Pre-emergence action against AMARE in % [11] | Pre-emergence action against MATIN in % [12] | Pre-emergence action against POLCO in % [13] | Post-emergence action against POAAN [14] | also measured
1 | C=CCNC(=O)COc1nn(-c2ccccc2F)c(-c2ccc(F)nc2)c1Br [Example X-001, N-Allyl-2-{[4-bromo-1-(2-fluorophenyl)-5-(6-fluoropyridin-3-yl)-1H-pyrazol-3-yl]oxy}acetamide] |  |  |  |  |  |  |  |  |  |  |  |  |  |  | pest or weed control at 1280 g/ha ([1]; Echinochloa crus-galli, 504 h): 100%; pest or weed control at 1280 g/ha ([2]; Poa annua, 504 h): 100%; pest or weed control at 1280 g/ha ([3]; Setaria viridis, 504 h): 100%; pest or weed control at 1280 g/ha ([4]; Amaranthus retroflexus, 504 h): 100%; pest or weed control at 1280 g/ha [5, 15]: 90%; pest or weed control at 1280 g/ha ([6]; Stellaria media, 504 h): 100%; pest or weed control at 320 g/ha ([7]; Alopecurus myosuroides, 504 h): 100%; pest or weed control at 320 g/ha ([8]; Avena fatua, 504 h): 90%; pest or weed control at 320 g/ha ([9]; Digitaria sanguinalis, 504 h): 100%; pest or weed control at 320 g/ha ([10]; Setaria viridis, 504 h): 100%; pest or weed control at 320 g/ha ([11]; Amaranthus retroflexus, 504 h): 90%; pest or weed control at 320 g/ha [12, 15]: 90%; pest or weed control at 320 g/ha ([13]; Fallopia convolvulus, 504 h): 90%; pest or weed control at 1280 g/ha ([14]; Poa annua, 504 h): 100%
2 | COC(=O)CNC(=O)COc1nn(-c2ccccc2F)c(-c2ccc(F)nc2)c1Br [Example X-002] | 90% | 100% | 100% | 100% | 90% | 100% | 100% | 100% | 100% | 100% | 100% | 100% | 100% | 100% | 
3 | CS(=O)(=O)NC(=O)COc1nn(-c2ccccc2F)c(-c2ccc(F)nc2)c1Br [Example X-004] | 100% | 100% | 100% | 100% | 100% | 100% | 100% | 90% | 100% | 100% | 90% | 90% | 90% | 100% | 
4 | CN(C)S(=O)(=O)NC(=O)COc1nn(-c2ccccc2F)c(-c2ccc(F)nc2)c1Br [Example X-005] | 100% | 100% | 100% | 100% | 100% | 100% | 100% | 100% | 100% | 100% | 100% | 100% | 90% | 100% | 
5 | COC(=O)CNC(=O)COc1nn(-c2ccccc2F)c(-c2ccc(F)nc2)c1C(F)(F)F [Example X-007] | 100% | 100% | 100% | 100% | 100% | 100% | 100% | 100% | 100% | 100% | 100% | 100% | 90% | 100% | 
